Source: patent EP0099121A2, “Pharmaceutical compositions” (Bristol-Myers Company, priority 1982, dated 1984)
Like-named read-outs stand apart in the source and are kept apart here.

Experiments:
Gastric Acid Output = assay: Gastric antisecretory activity in the Gastric Fistula Rat (Table 2 title: Two-Hour Pylorus Ligated Rat); assay type: in vivo, Long Evans rats; details: numbers in parentheses are the 95% confidence limits
Protocol: Male Long Evans rats weighing about 240-260 grams at the time of cannula implantation are used. The design and implantation of the stainless steel cannula into the anterior wall of the fore-stomach are carried out essentially as described by Pare et al. [Laboratory Animal Science, 27, 244 (1977)]. The fistula components are designed and the operative procedure is carried out exactly as described in the above reference. Post operatively the animals are individually housed in solid bottom cages with sawdust and are allowed food and water ad libitum throughout the entire recovery period. Animals are not used for test purposes for at least 15 days after the operative procedure.
The animals are fasted but allowed water ad libitum for 20 hours before the testing procedure is to begin. Immediately prior to collection, the cannula is opened and the stomach washed gently with 30-40 mL of warm saline or distilled water to remove any residual contents. The catheter is then screwed into the cannula in place of the plugging screw and the rat is placed in a clear plastic rectangular cage measuring 40 cm long, 15 cm wide and 13 cm high. The bottom of the cage has a slit approximately 1.5 cm wide and 25 cm long running down the center to accommodate the catheter which hangs through it. In this way the rat is not restricted and can move freely about the cage during collection periods. The remainder of the assay is carried out as described by Ridley et al. [Research Comm. Chem. Path. Pharm., 17, 365 (1977)].
Gastric secretions collected during the first hour after washing the stomach are discarded as they may be contaminated. For oral evaluation, the catheter is then removed from the cannula and replaced with the plugging screw. Water (2 mL/kg) is administered orally via gastric intubation and the animal is returned to the cage for 45 minutes. After this time the plugging screw is removed and replaced with a catheter to which a small plastic vial has been attached to collect the gastric secretions. A two hour sample is collected (this represents the control secretion), the catheter removed and replaced with the plugging screw. The test drug is now administered orally in a volume of 2 mL/kg via gastric intubation. Forty-five minutes later the plugging screw is again removed, replaced with the catheter attached to a small plastic vial and another 2 hour sample is collected. The secretions in the second sample are compared to those of the control sample in order to determine the effects of the test drug.
When test compounds are to be evaluated parenterally, the animal is injected ip or sc with the test compound vehicle in a volume of 2 mL/kg immediately after discarding the initial 60 minute collection. A two hour sample is collected (control secretion) and the animals are injected either ip or sc with the test compound in a volume of 2 mL/kg. An additional two hour sample is collected and its secretions are compared to those of the control period to determing drug effects.
The samples are centrifuged in a graduated tube for volume determination. Titratable acidity is measured by titrating a one mL sample to pH 7.0 with 0.02N NaOH, using an Autoburet and an electrometric pH meter (Radiometer). Titratable acid output is calculated in microequivalents by multiplying the volume in milliliters by the acid concentration in milliequivalents per liter.
(§1) Results are expressed as percent inhibition relative to control readings. Dose response curves are constructed and ED values are calculated by regression analyses. At least three rats are used at each dosage level and a minimum of three dosage levels are utilized for determination of a dose response curve.

acid output = assay: Gastric antisecretory activity in the Heidenhain Pouch Dog; assay type: in vivo, dogs; details: for Potency Ratio (cimetidine = 1.0): oral
Protocol: Prior to surgery, hematology and blood chemistry profiles are obtained and an assessment made as to the general health of selected female dogs. Dogs are vaccinated with Tissue Vax 5 (DHLP - Pitman-Moore) and housed in general animal quarters for four weeks' observation so incipient diseases may become apparent. Dogs are fasted with water ad libitum 24 hours prior to surgery.
Anesthesia is induced with Sodium Pentothal (Abbott) 25-30 mg/kg iv. Subsequent anesthesia is maintained with methoxy- flurane (Pitman-Moore). A mid-line linea alba incision from xiphoid to umbilicus provides good exposure and ease of closure. The stomach is pulled up into the operative field, the greater curvature stretched out at multiple points and clamps placed along the selected line of incision. The pouch is made from the corpus of the stomach so that true parietal cell juice is obtained. About 30% of the corpus volume is resected. The cannula is made of light-weight, biologically-inert material such as nylon or Delrin with dimensions and attachments after DeVito and Harkins [J. Appl. Physiol., 14, 138 (1959)]. Post operatively, dogs are medicated with antibiotics and an analgesic. They are allowed 2-3 months for recovery. Experiments are carried out in the following way: Dogs are fasted overnight (~18 hours) with water ad libitum prior to each experiment. The dogs are placed in a sling and a saphenous vein cannulated for drug administration. Histamine as the base (100 ug/kg/hr) and chlorpheniramine maleate (0.25 mg/kg/hr) are infused continuously (in a volume of 6 mL/hr) with a Harvard infusion pump.
Ninety minutes' infusion are allowed for the dogs to reach a steady state of acid output. At this time the drug or normal saline (control) is administered concomitantly with the secretagogue in a volume of 0.5 mL/kg over a 30 second period. When oral studies are to be carried out, the drug is administered via gastric gavage in a volume of 5 mL/kg. Infusion of the secretagogue is continued and 15 minute samples of.the gastric juice are taken for 4.5 hours. Each sample is measured to the nearest 0.5 mL and titratable acidity is determined by titrating a 1 mL sample to pH 7.0 with 0.2N NaOH, using an Autoburet and an electrometric pH meter (Radiometer). Titratable acid output is calculated in microequivalents by multiplying the volume in milliliters by the acid concentration in milliequivalents per liter.
as §1, with “and ED50” for “and ED”, “analyses. From 3 to 5 dogs” for “analyses. At least three rats”, “each dose” for “each dosage”

pepsin = details: gastric ulcer; cited from earlier work
gastric erosions = assay: HCl-induced gastric erosions in rats, pretreatment with compound alone or with pepstatin; assay type: in vivo, Long Evans rats; details: probit analysis
Protocol: Adult male, Long Evans rats weighing 280-300 g (Blue Spruce Farms, Alton, New York) were used. The animals were individually caged and food and water were removed 24 and 18 hours, respectively, prior to testing. On the following day, the test compound was administered orally to the animals 30 minutes before 1.0 mL of 0.75N HC1 was instilled into the stomach by gavage. Animals treated with the combination of the test compound and pepstatin received the test compound 30 minutes before, and a fixed amount of pepstatin (20 mg/kg po) 10 minutes before, the hydrochloric acid was administered. […] One hour after receiving the HC1 solution, the animals were sacrificed with an intraperitoneal injection of 0.2 mL of T-6r-, a euthanasia solution (National Laboratories Corp.).
The stomachs were photographed with a Polaroid" Close Up camera (Polaroid Corporation) and scoring was determined from the photographs. For scoring purposes, only those erosions with a minimum length of 1 mm were considered. The severity of gastric ulceration was defined for each animal as the sum of the maximum continuous lengths (in mm) of the erosions satisfying the above criteria. […]
Data were analyzed using the t-test for unpaired data and ED50 values were calculated from the dose response data using probit analysis [Finney, Probit Analysis, 3rd ed., University Press, Cambridge, England (1971)]. […]

gastric secretion [1] = assay: Inhibition of gastric secretion by the oral route, rat; assay type: in vivo
gastric secretion [2] = assay: Inhibition of gastric secretion by the oral route, dog; assay type: in vivo
ulcer formation = details: two or more days of pretreatment, single agent; cited from earlier work
gastric acid secretion = details: normal volunteers and patients with duodenal ulcer; cited from earlier work
[3] = Rattus norvegicus, sc, Route of Administration s.c., read-out: ED50
[4] = Rattus norvegicus, ip, Route of Administration i.p., read-out: ED50

Row | Compound | ED50 (Gastric Acid Output; [3]) [µmol/kg] | Potency Ratio (cimetidine = 1.0) (acid output) | further results
1 | NC(N)=Nc1nc(CSCCNC2=NS(=O)(=O)N=C2N)cs1 [Example 35, 3-Amino-4-{2-[(2-guanidinothiazol-4-yli)methylthio]ethyl-amino}-1,2,5-thiadiazole 1,1-dioxide] | 0.08 | 20 | –
2 | sucralfate | – | – | benefit in patients with gastric ulcer (pepsin): none
3 | CNC1=NS(=O)(=O)N=C1NCCSCc1ccc(CN(C)C)s1 [Example 65, 3-{2-[(5-Dimethylaminomethyl-2-thienyl)methylthio]ethyl-amino}-4-methylamino-1,2,5-thiadiazole 1,I-dioxide] | 0.07 | 10 | –
4 | NC1=NS(=O)(=O)N=C1NCCCOc1cccc(CN2CCCC2)c1 [146 a] | – | ~20 | ED50 (Gastric Acid Output; Route of Administration s.c.): 0.023 (0.0091-0.046) μmoles/kg
5 | CNC(=C[N+](=O)[O-])NCCSCc1ccc(CN(C)C)o1 [Ranitidine, ranitidine] | – | – | ED50 (gastric erosions; Rattus norvegicus, po, compound alone, orally 30 minutes before 1.0 mL of 0.75N HCl, read-out: ED50 (mg/kg) for Inhibition of Ulcer Formation Alone): 123 mg/kg; ED50 (mg/kg) for Inhibition of Ulcer Formation with Pepstatin (gastric erosions; compound orally 30 minutes before and pepstatin 20 mg/kg po 10 minutes before HCl): 104 mg/kg; times as potent as cimetidine as an inhibitor of gastric secretion (gastric secretion [1]): about 4 times; times as potent as cimetidine as an inhibitor of gastric secretion (gastric secretion [2]): ~6 times
6 | CN(C)Cc1cccc(OCCCNc2n[s+]([O-])nc2N)c1 (centres unmarked) [Example 118, 3-Amino-4-[3-(3-dimethylaminomethylphenoxy)propylamino]-1,2,5-thiadiazole 1-oxide] | 0.066 | 10 | –
7 | CNc1n[s+]([O-])nc1NCCSCc1ccc(CN(C)C)o1 (centres unmarked) [Example 18, 3-{2-[(5-Dimethylaminomethyl-2-furyl)methylthio]ethylamino}-4-methylamino-1,2,5-thiadiazole 1-oxide] | 0.38 | 18 | –
8 | [O-][s+]1nc(NCCCOc2cccc(CN3CCCCC3)c2)c(NCc2cccnc2)n1 (centres unmarked) [Example 149, 3-[(3-Pyridyl)methylamino]-4-[3-(3-piperidinomethylphenoxy)-proavlamino]-1,2,5-thiadiazole1-oxide] | ~0.08 | 10 | –
9 | CC1(C)[C@@H](OC(=O)CCC(=O)O)CC[C@]2(C)[C@H]3C(=O)C=C4[C@@H]5C[C@@](C)(C(=O)O)CC[C@]5(C)CC[C@@]4(C)[C@]3(C)CC[C@@H]12 [carbenoxolone] | – | – | ulcer formation (ulcer formation): significantly decreased ulcer formation
10 | CNC1=NS(=O)(=O)N=C1NCCSCc1csc(NC(=N)N)n1 [Example 31, 3-{2-[(2-Guanidinothiazol-4-yl)methylthio)ethylamino}-4-methylamino-1,2,5-thiadiazole 1,1-dioxide] | – | 13 | ED50 (Gastric Acid Output; [4]): 0.41 µmol/kg
11 | CN(C)Cc1ccc(CSCCNC2=NS(=O)(=O)N=C2NCCSCc2ccc(CN(C)C)o2)o1 [11 B] | – | 11 | ED50 (Gastric Acid Output; Route of Administration i.p.): 0.69 (0.31-1.33) μmoles/kg
12 | CN/C(=N/CCSCc1nc[nH]c1C)NC#N [cimetidine] | – | – | ED50 (acid output; Canis lupus familiaris, po, read-out: oral ED50): ~3.3 µmol/kg; ulcer formation (ulcer formation): significantly decreased ulcer formation; basal and stimulated gastric acid secretion (gastric acid secretion): antagonize both basal and stimulated gastric acid secretion
13 | CCNC1=NS(=O)(=O)N=C1NCCSCc1ccc(CN(C)C)o1 [Example 12, 3-{2-[(5-Dimethylaminomethyl-2-furyl)methylthio]ethyl-amino]-4-ethylamino-1,2,5-thiadiazole 1,1-dioxide] | – | 10 | ED50 (Gastric Acid Output; [4]): 0.28 µmol/kg
14 | CNC1=NS(=O)(=O)N=C1NCCCCc1ccc(CN(C)C)o1 [Example 21, 3-{4-(5-Dimethylaminomethyl-2-furyl)butylamino}-4-methvlamino-1,2,5-thiadiazole 1,1-dioxide] | 0.3 | – | –
15 | C=CCNC1=NS(=O)(=O)N=C1NCCSCc1ccc(CN(C)C)o1 [Example 19, 3-Allylamino-4-{2-[(5-dimethylaminomethyl-2-furyl)methyl-thio]ethylamino}-1,2,5-thiadiazole 1,1-dioxide] | 0.34 | – | –
